{"source": "patent US20120165403A1", "about": "“METHODS OF INHIBITING THE ACTIVITY OF HSP90 AND/OR ARYL HYDROCARBON RECEPTOR” (UNIVERSITY OF ROCHESTER, priority 2004, published 2012)", "target": "chicken hsp90 (Gallus gallus, UniProt P11501)", "sequence (P11501 538-728)": "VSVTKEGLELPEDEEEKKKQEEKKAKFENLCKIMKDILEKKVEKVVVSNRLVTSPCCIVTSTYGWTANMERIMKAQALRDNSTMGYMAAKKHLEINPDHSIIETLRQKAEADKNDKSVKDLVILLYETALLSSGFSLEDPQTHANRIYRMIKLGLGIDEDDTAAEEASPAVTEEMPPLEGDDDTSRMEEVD", "assay": "Affinity chromatography on EGCG-conjugated Sepharose, hsp90 point and truncation mutants", "assay_type": "binding", "design": "made in house; host or cells: coupled transcription/translation in rabbit reticulocyte lysate (TNT, Promega), 35S-labelled", "conditions": "smallest truncation mutant N538, amino acids 538-728", "excerpt": "Murine AhR and ARNT cDNA (obtained from J. Whitlock and O. Hankinson, respectively) were inserted into pcDNA3 (Invitrogen, Carlsbad, Calif.). Chicken hsp90 constructs (FIG. 5), c90711hsp (wild-type), c90G94D (wild-type point mutant gly94→Asp (Grenert et al., J. Biol. Chem. 272:23843-23850 (1997), which is hereby incorporated by reference in its entirety), c90D92A (wild-type point mutant Asp92→Ala (Sullivan et al., J. Biol. Chem. 268:20373-20379 (1993), which is hereby incorporated by reference in its entirety), c90N221 (wild-type truncation mutant encoding a.a. 221-728 (Sullivan et al., J. Biol. Chem. 268:20373-20379 (1993), which is hereby incorporated by reference in its entirety)), c90N303 (a.a. 303-728) and c90N538 (a.a. 538-728) were kind gifts from Dr. D. Toft (Rochester, Minn.). The C-terminal truncation mutant c900507 (a.a. 1-221) was obtained from Dr. L. Neckers (Rockville, Md.) (Grenert et al., J. Biol. Chem. 272:23843-23850 (1997); Marcu et al., J. Biol. Chem. 275:37181-37186 (2000), which are hereby incorporated by reference in their entirety). Human p23 cDNA was excised from pQE80-p23 (obtained from W. Chan Stockton, Calif.) by sequential digests using the restriction enzymes Sad (3′-end) and BamHI (5′-end) and inserted into the similarly digested pET28a (Novagen, Madison, Wis.). […]"}
{"smiles": "O=C(O[C@@H]1Cc2c(O)cc(O)cc2O[C@@H]1c1cc(O)c(O)c(O)c1)c1cc(O)c(O)c(O)c1", "note": "[EGCG, epigallocatechin gallate]", "values": [{"measurement": "location of the binding site on hsp90", "value": "binding of EGCG occurs within this region of the protein"}]}
